PubChem BioAssay AID1963971 (Molecular Pharmacology Branch, DTP, NCI, 2024)
pIC50: −log10 of the molar value.

Tested on: 953936-095-R-J2-PDC spheroids with HUVEC/MSC, viability
Assay: Anticancer human tumor 953936-095-R-J2-PDC patient-derived cervical squamous cell carcinoma cell line growth inhibition [PI3K]
Conditions: for pIC50: curve of first compound; for viability, T/C: stronger effect = lower value
In short: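 Tumor cells were combined with HUVEC and MSCs into spheroids, then dosed with PI3K-inhibitor combinations over half-log ranges capped near clinical Cmax or 10 microM.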
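Note: spheroids exposed to compounds for seven days before read-out.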

Molecule `CC1(C)CCC(CN2CCN(c3ccc(C(=O)NS(=O)(=O)c4ccc(NCC5CCOCC5)c([N+](=O)[O-])c4)c(Oc4cnc5[nH]ccc5c4)c3)CC2)=C(c2ccc(Cl)cc2)C1` + COc1c(OCCCN2CCOCC2)ccc2c3n(c(=NC(=O)c4cnc(N)nc4)nc12)CCN3 has a pIC50 (second compound 0.00316 µM) of 5.15, a pIC50 (second compound 0.01 µM) of 5.27 and a pIC50 (second compound 0.0316 µM) greater than 7.50. The pIC50 (second compound 0.1 µM) was greater than 7.50, the pIC50 (second compound 0.316 µM) was greater than 7.50 and the pIC50 (second compound 1 µM) was greater than 7.50. For the same molecule, the viability, T/C (second compound 0.00316 µM, first compound 0.0316 µM) was 82%, the viability, T/C (second compound 0.00316 µM, first compound 0.1 µM) was 84.2% and the viability, T/C (second compound 0.00316 µM, first compound 0.316 µM) was 93.8%. For the same molecule, the viability, T/C (second compound 0.00316 µM, first compound 1 µM) was 96.2%, the viability, T/C (second compound 0.00316 µM, first compound 3.16 µM) was 97.5% and the viability, T/C (second compound 0.00316 µM, first compound 10 µM) was 33.2%. For the same molecule, the viability, T/C (second compound 0.01 µM, first compound 0.0316 µM) was 69.6%, the viability, T/C (second compound 0.01 µM, first compound 0.1 µM) was 78.1% and the viability, T/C (second compound 0.01 µM, first compound 0.316 µM) was 68%. The viability, T/C (second compound 0.01 µM, first compound 1 µM) was 74.7%, the viability, T/C (second compound 0.01 µM, first compound 3.16 µM) was 70.5% and the viability, T/C (second compound 0.01 µM, first compound 10 µM) was 26.6%. The viability, T/C (second compound 0.0316 µM, first compound 0.0316 µM) was 42%, the viability, T/C (second compound 0.0316 µM, first compound 0.1 µM) was 50% and the viability, T/C (second compound 0.0316 µM, first compound 0.316 µM) was 41.5%. It also gave a viability, T/C (second compound 0.0316 µM, first compound 1 µM) of 40.1%, a viability, T/C (second compound 0.0316 µM, first compound 3.16 µM) of 44.1% and a viability, T/C (second compound 0.0316 µM, first compound 10 µM) of 21.6%. It also gave a viability, T/C (second compound 0.1 µM, first compound 0.0316 µM) of 18.2%, a viability, T/C (second compound 0.1 µM, first compound 0.1 µM) of 17.8% and a viability, T/C (second compound 0.1 µM, first compound 0.316 µM) of 18.3%. For the same molecule, the viability, T/C (second compound 0.1 µM, first compound 1 µM) was 17.1%, the viability, T/C (second compound 0.1 µM, first compound 3.16 µM) was 15.6% and the viability, T/C (second compound 0.1 µM, first compound 10 µM) was 6.6%. The viability, T/C (second compound 0.316 µM, first compound 0.0316 µM) was 6.6%, the viability, T/C (second compound 0.316 µM, first compound 0.1 µM) was 7.22% and the viability, T/C (second compound 0.316 µM, first compound 0.316 µM) was 7.33%. It also gave a viability, T/C (second compound 0.316 µM, first compound 1 µM) of 5.61%, a viability, T/C (second compound 0.316 µM, first compound 3.16 µM) of 5.63% and a viability, T/C (second compound 0.316 µM, first compound 10 µM) of 3.88%. It also gave a viability, T/C (second compound 1 µM, first compound 0.0316 µM) of 1.61%, a viability, T/C (second compound 1 µM, first compound 0.1 µM) of 1.39% and a viability, T/C (second compound 1 µM, first compound 0.316 µM) of 1.49%. It also gave a viability, T/C (second compound 1 µM, first compound 1 µM) of 1.3%, a viability, T/C (second compound 1 µM, first compound 3.16 µM) of 1.52% and a viability, T/C (second compound 1 µM, first compound 10 µM) of 0.86%.
